Laboratory results reported in US11925656B2, “Biological total joint replacement” (priority 2014, dated 2024).
“Also recorded” adds a separate entry of the source.

Legend:
[1] = system: ADAMTS-5; assay: ADAMTS-5 in synovial fluid by ELISA, rabbit arthritis model; format: in vivo; settings: therapeutic groups, oral days 42-70, vs control
From the text: (§1) The study was approved by the Institutional Animal Care and Use Committee (IACUC) of Thomas D. Morris, Inc. 28 New Zeeland White rabbits were selected for the study. Six such were randomly assigned to one of four groups; prophylactic cyanidin-3-glycoside (C3G)(referred to figures as Cl 1-42), prophylactic protocatechuic acid (PCA)(referred to in figures as PCA 1-42), therapeutic C3G (referred to in figures as Cl 42-70), and therapeutic PCA (referred to in figures as PCA 42-70). There were four controls, two each to the prophylactic and therapeutic groups.
(§2) The prophylactic groups were given PROC3G™ by Chromadex™ at a dose of 30 mg/kg of body weight of either C3G or PCA by mouth, 7 times per week for 42 days. The therapeutic groups' treatment was initiated on day 42 with a daily dose of PROC3G™ by Chromadex™ 7 times per week for 4 weeks. The dose of 30 mg of cyanidin-3-glucoside per kg of body weight calculates to be 0.177 millimoles per kg body weight. The dose of PCA was the same in terms of millimoles per kg body weight.
(§3) The experimental rabbits underwent surgery with an intent to create a severe degenerative arthritis by cutting the medial collateral ligament, the anterior cruciate ligament and removing the medial meniscus. A partial thickness laceration was made longitudinally on the lateral femoral condyle for future assessment of potential for repair. The surgery was performed by two licensed veterinarians. One surgeon was very experienced. The other surgeon was a recent graduate.
(§4) At necropsy, the synovial fluid was harvested percutaneously and upon arthrotomy. The synovium was harvested from posterior compartment. The patella and adjacent synovium was procured as a separate specimen as was the medial and lateral condyle.
(§5) The synovial fluid and half of the synovium was frozen and sent to BioBoston Laboratory for chemical analysis. The other half of the synovium and bone was sent to McClinchery Histology in Stockbridge, Mich. for histological preparation and staining. […]
(§6) Synovial Fluid—Detected by ELISA

[2] = system: catabolic cytokine environment; assay: Cytokine environment in surgically created arthritic knee; format: in vivo; settings: rabbits, either oral or intraarticular route
[3] = system: ADAMTS-5 gene expression; assay: ADAMTS-5 gene expression in synovium by real-time PCR, rabbit arthritis model; format: in vivo; settings: therapeutic groups, oral days 42-70, vs control
From the text: as §1, §2
(§7) The experimental rabbits underwent surgery with an intent to create a severe degenerative arthritis by cutting the medial collateral ligament, the anterior cruciate ligament and removing the medial meniscus. […]
Synovial Tissue (Synovium)—Gene Expression Level Detected by Real-Time PCR

[4] = system: collagen II; assay: Collagen II expression in cartilage, immunohistochemical staining, rabbit arthritis model; format: in vivo; settings: prophylactic, minimum of 30 mg/kilo gram body weight by oral route, compared to the controls
From the text: as §1, §2
as §3, with “The surgery was performed by two licensed veterinarians. One surgeon was very experienced. The other surgeon was a recent graduate.” left out

[5] = system: patellar articular cartilage; assay: ICRS histological visual scale scoring of patellar cartilage, rabbit arthritis model; format: in vivo; settings: prophylactic, minimum of 30 mg/kilo gram body weight by oral route
From the text: International Cartilage Repair Society (ICRS) criteria are described for example in Hoemann, et al., (cited on Applicant's IDS), herein incorporated by reference.
as §1, §2, §7

[6] = system: lubricin; assay: Lubricin in synovium by ELISA, rabbit arthritis model; format: in vivo; settings: prophylactic groups, oral days 1-42, vs control
From the text: as §1, §2, §3, §4, §5
(§8) Synovial Tissue (Synovium)—Detected by ELISA

[7] = system: IGF-1; assay: IGF-1 in plasma, rabbit arthritis model; format: in vivo; settings: for IGF-1 in the plasma: control group 25 PG/ML
From the text: as §1, §2, §3
Blood testing was performed prior to necropsy on C3G, PCA, glucose, MMP-3 and IGF-1 to assess any systemic effects.

[8] = system: IGF-1 gene expression; assay: IGF-1 gene expression in synovium by real-time PCR, rabbit arthritis model; format: in vivo; settings: rabbits, either oral or intraarticular route
From the text: as §1
(§9) The prophylactic groups were given PROC3G™ by Chromadex™ at a dose of 30 mg/kg of body weight of either C3G or PCA by mouth, 7 times per week for 42 days. The therapeutic groups' treatment was initiated on day 42 with a daily dose of PROC3G™ by Chromadex™ 7 times per week for 4 weeks. The dose of 30 mg of cyanidin-3-glucoside per kg of body weight calculates to be 0.177 millimoles per kg body weight. The dose of PCA was the same in terms of millimoles per kg body weight. […]
See FIG. 5B. • Synovial Tissue (Synovium)-Detected by ELISA • IGF-1 was increased in all groups. See FIG. 8B. • Synovial Tissue (Synovium)-Gene Expression Level Detected by Real-Time PCR • IGF-1 was increased in all groups.

[9] = system: MMP3; assay: MMP3 in synovial fluid by ELISA, rabbit arthritis model; format: in vivo; settings: therapeutic groups, oral days 42-70, vs control
From the text: as §1, §9
MMP3 is known as matrix metallopeptidase 3, or stromelysin 1 or progelatinase. […] See FIG. 2C. • Synovial Tissue (Synovium)—Detected by ELISA • MMP-3 levels were reduced in all four groups. See FIG. 9B. • Synovial Tissue (Synovium)—Gene Expression Level Detected by Real-Time PCR • MMP-3 gene expression was decreased in all groups. […]

[10] = system: human synovial explants; settings: PCA directly applied; cited from earlier work
[11] = system: C-reactive protein (CRP); assay: C-reactive protein (CRP) in plasma after knee surgery; format: in vivo, rabbit
Protocol: C-reactive protein (CRP) is a protein found in the blood plasma, the levels of which rise in response to inflammation (i.e., C-reactive protein is an acute-phase protein). Its physiological role is to bind to phosphocholine expressed on the surface of dead or dying cells (and some types of bacteria) in order to activate the complement system via the C1Q complex. CRP rises within two hours of the onset of inflammation, up to a 50,000-fold, and peaks at 48 hours. […] CRP is thus a screen for inflammation.
Knee surgery was performed to create a severe irreparable degenerative knee joint, which in turn elevated the CRP in the plasma to average of […]. A historical normal amount of CRP is 3.15 micrograms/mL. See Sun H, et al., Am J Pathol. October 2005; 167(4): 1139-1148. Rabbit CRP levels are close to the mean values of healthy middle-aged humans (2.82 mg/L) reported in the literature. See Ockene I S, et al., Clin Chem. 2001; 47:444-450.
The controls in the study were animals that had surgery and received no treatment. The prophylaxis test groups had the surgery and received 6 weeks of oral C-3-G or PCA 7 times per week as described in example 1. The therapeutic treatment group had surgery, received no treatment for 41 days and then at day 42 received oral C-3-G or PCA 7 times per week as described in example 1.

[12] = system: lubricin; assay: Lubricin expression in cartilage, immunohistochemical staining, rabbit arthritis model; format: in vivo; settings: prophylactic, minimum of 30 mg/kilo gram body weight by oral route, compared to the controls
From the text: as §1, §2
as §3, with “The surgery was performed by two licensed veterinarians. One surgeon was very experienced. The other surgeon was a recent graduate.” left out

[13] = system: human mesenchymal stem cells; settings: in vitro, dose related; cited from earlier work
[14] = more powerful than vitamin E; cited from earlier work
[15] = system: MRSA and Pseudomonas; settings: tape-stripped rodent backs contaminated with MRSA and Pseudomonas; cited from earlier work
[16] = system: MMP-3; assay: MMP-3 expression in cartilage, histochemical staining and scoring, rabbit arthritis model; format: in vivo
From the text: as §1, §2, §3, §4
(§10) The synovial fluid and half of the synovium was frozen and sent to BioBoston Laboratory for chemical analysis. The other half of the synovium and bone was sent to McClinchery Histology in Stockbridge, Mich. for histological preparation and staining. Patellar slides were sent to BioBoston Contract Laboratories for histochemical staining and ICRS grading. Sample slides were examined for Lubricin at Myron Spector laboratory.
MMP3 is known as matrix metallopeptidase 3, or stromelysin 1 or progelatinase. Proteins of the matrix metalloproteinase (MMP) family are involved in the breakdown of 20 extracellular matrix in normal physiological processes, such as embryonic development, reproduction, and tissue remodeling, as well as in disease processes, such as arthritis and metastasis. […] See FIG. 2C. • Synovial Tissue (Synovium)—Detected by ELISA • MMP-3 levels were reduced in all four groups. See FIG. 9B. • Synovial Tissue (Synovium)—Gene Expression Level Detected by Real-Time PCR • MMP-3 gene expression was decreased in all groups. See FIG. 13A. • Histochemical Scoring Analysis

[17] = system: TNF-alpha; assay: TNF-alpha in synovial fluid by ELISA, rabbit arthritis model; format: in vivo; settings: therapeutic groups, oral 4 weeks, vs control; not statistically significant
From the text: as §1, §2, §7, §6

[18] = system: IL-1 beta; assay: IL-1 beta in synovium by ELISA, rabbit arthritis model; format: in vivo; settings: therapeutic groups, oral days 42-70, vs control
From the text: as §1, §9
Interleukin-1 beta (IL-1p) also known as catabolic, is a cytokine protein. […] Increased production of IL-1B causes a number of different auto-inflammatory syndromes. • Synovial Fluid—Detected by ELISA • Levels of IL-1 beta were decreased in all groups. See FIG. 2A. • Synovial Tissue (Synovium)—Detected by ELISA

[19] = system: aggrecan; assay: Aggrecan expression in patellar cartilage, rabbit arthritis model; format: in vivo; settings: prophylactic, minimum of 30 mg/kilo gram body weight by oral route, compared to the controls
From the text: as §1, §2
as §3, with “The surgery was performed by two licensed veterinarians. One surgeon was very experienced. The other surgeon was a recent graduate.” left out

[20] = system: human osteoblasts; settings: in vitro, dose related; cited from earlier work
[21] = system: MMP-13; assay: MMP-13 in synovium by ELISA, rabbit surgically induced knee arthritis; format: in vivo; settings: vs untreated control, not statistically significant
From the text: as §1, §2, §3, §4, §10, §8

[22] = human; cited from earlier work
[23] = system: lymphocytes; assay: Number of lymphocytes in synovial fluid, rabbit arthritis model; format: in vivo
From the text: as §1, §2, §3, §4
In addition to testing for the increase or decrease of various factors and cytokines, tests were run to count the number of white blood cells, including polymorphonuclear leukocytes (PMN), macrophages (Mac) and lymphocytes (Lym). […]

[24] = prophylactic groups, oral days 1-42
[25] = therapeutic groups, oral days 42-70
[26] = prophylactic groups, oral days 1-42, vs control
[27] = therapeutic groups, oral days 42-70, vs control

For O=C(O)c1ccc(O)c(O)c1 [PCA, Protocatechuic acid (3,4-dihydroxybenzoic acid)], the “ADAMTS-5 in synovial fluid” value [1] was “decreased”, the “catabolic cytokine environment in a surgically created arthritic knee” value [2] was “reversing” and the “ADAMTS-5 gene expression in synovium” value [3] was “decreased”. For the same compound, the “type II collagen in articular cartilage ECM” value [4] was “increased”, the articular cartilage cells ([5]; compared to the controls) was “unchanged in nature and spacing” and the subchondral bone structure ([5]; without sclerosis or osteophyte formation) was “remained normal in structure”. For the same compound, the lubricin in synovium [6] was “increased”, the “IGF-1 in the plasma, change vs control” value ([7]; prophylactic group, oral days 1-42, only group with an increase) was “increased” and the “IGF-1 in the plasma” value [7, 24] was 43.0 pg/mL. The “IGF-1 in the plasma” value [7, 25] was 29.0 pg/mL, the “IGF-1 genetic expression in the synovium” value [8] was “increase” and the “MMP3 in synovial fluid” value [9] was “decreased”. For the same compound, the “IGF-1 in human synovial explants” value [10] was “increased”, the “CRP, an indicator of inflammation” value ([11]; given by oral route immediately after injury) was “kept to normal levels” and the “plasma CRP level” value ([11]; prophylaxis test group, 6 weeks oral treatment from surgery, untreated control at 42 days 8.8 mg/mL) was 3.6 micrograms/mL. The “plasma CRP level” value ([11]; therapeutic group, no treatment for 6 weeks after surgery, then 4 weeks oral treatment) was 43 mg/mL, the “lubricin on the articular cartilage surface” value [12] was “increased” and the “bone making markers in human mesenchymal stem cells” value [13] was “produce bone making markers”. The “antioxidant power relative to vitamin E” value [14] was 10 ×, the “collagen layer in the dermis” value [15] was “production of collagen layer in the dermis” and the “re-epithelialization of the skin wound” value [15] was “re-epithelialization of the wound”. The “time to disinfect the wound” value [15] was 2 days, the “histochemical staining for the presence of MMP-3 in cartilage” value [16, 24] was “no staining” and the “MMP-3 expression in cartilage” value [16, 26] was “reduced”. The “histochemical staining for the presence of MMP-3 in cartilage” value [16, 25] was “no staining”, the “MMP-3 expression in cartilage” value [16, 27] was “reduced” and the “TNF-alpha levels in synovial fluid” value [17] was “slight increase”. For the same compound, the “levels of IL-1 beta in synovium” value [18] was “decreased”, the “aggrecan in articular cartilage ECM” value [19] was “increased” and the “bone making markers in human osteoblasts” value [20] was “produce bone making markers”. The “MMP-13 levels in synovium” value ([21]; prophylactic groups, oral 7 times per week days 1-42 (C3G 30 mg/kg, PCA 26.4 mg/kg)) was “very slightly decreased”, the “MMP-13 levels in synovium” value ([21]; therapeutic groups, oral 7 times per week days 42-70 (C3G 30 mg/kg, PCA 26.4 mg/kg)) was “increased slightly” and the toxicity [22] was “non-toxic; also recorded: no known human toxic effects”. The “number of lymphocytes in synovial fluid” value [23, 26] was “decreased” and the “number of lymphocytes in synovial fluid” value [23, 27] was “decreased”.
